Results as given in ChEMBL document CHEMBL4152377, “Design and Activity of Specific Hypoxia-Inducible Factor-2α (HIF-2α) Inhibitors for the Treatment of Clear Cell Renal Cell Carcinoma: Discovery of Clinical Candidate ( S)-3-((2,2-Difluoro-1-hydroxy-7-(methylsulfonyl)-2,3-dihydro-1 H-inden-4-yl)oxy)-5-fluorobenzonitrile (PT2385)” (J Med Chem, 2018).
Converted amounts (≈) assume the structure as drawn. The source made the active and inactive calls. The rule behind the calls is not given here.

Key:
[1] = Protein binding in mouse plasma at 10 uM after 4 hrs by LC-MS/MS analysis; assay type: ADME, cell-free; details: read-out: PPB (converted)
Canis familiaris [2] = assay: AUCt in Beagle dog at 10 mg/kg, po via gavage by UPLC analysis; assay type: ADME, organism-based, Canis lupus familiaris; details: in vivo
Cytochrome P450 2C9 = Cytochrome P450 2C9 (Homo sapiens, UniProt P11712); assay: Inhibition of CYP2C9 in human liver microsomes using diclofenac as substrate after 10 mins in presence of NADPH by LC-MS/MS analysis; assay type: ADME
Sequence of Cytochrome P450 2C9 (P11712 whole entry): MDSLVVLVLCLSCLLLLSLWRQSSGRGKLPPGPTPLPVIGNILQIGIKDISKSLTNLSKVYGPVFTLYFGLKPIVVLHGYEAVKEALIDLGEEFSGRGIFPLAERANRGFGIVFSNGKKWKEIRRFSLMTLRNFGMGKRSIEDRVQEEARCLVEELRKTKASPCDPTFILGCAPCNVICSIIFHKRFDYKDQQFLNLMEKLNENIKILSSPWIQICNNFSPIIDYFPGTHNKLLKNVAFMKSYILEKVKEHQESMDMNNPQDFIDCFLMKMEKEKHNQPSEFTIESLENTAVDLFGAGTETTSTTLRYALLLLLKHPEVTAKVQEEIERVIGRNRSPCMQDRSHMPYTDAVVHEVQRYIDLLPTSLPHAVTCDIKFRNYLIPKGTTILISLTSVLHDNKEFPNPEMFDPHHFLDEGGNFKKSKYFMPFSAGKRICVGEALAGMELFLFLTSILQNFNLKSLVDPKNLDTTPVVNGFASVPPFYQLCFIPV

[3] = Intrinsic clearance in rat liver microsomes at 1 uM measured up to 30 mins by LC-MS/MS analysis; assay type: ADME, microsome; details: read-out: CLH
[4] = AUCt in CD1 mouse at 10 mg/kg, po by UPLC analysis; assay type: ADME, organism-based; details: in vivo
[5] = Protein binding in rat plasma at 10 uM after 4 hrs by LC-MS/MS analysis; assay type: ADME, cell-free; details: read-out: PPB (converted)
[6] = Protein binding in monkey plasma at 10 uM after 4 hrs by LC-MS/MS analysis; assay type: ADME, cell-free, Macaca mulatta; details: rhesus monkey, read-out: PPB (converted)
[7] = Apparent permeability across apical to basolateral side in MDCK-MDR1 cells at 1 uM after 1 hr by LC/MS/MS analysis; assay type: ADME, cell-based, Canis lupus familiaris; details: dog
Mus musculus [8] = assay: Toxicity in SCID/Biege mouse xenografted with human 786-O cells assessed as morbidity at 10 mg/kg, po bid for 21 days; assay type: organism-based; details: in vivo, 504 h
[9] = Oral bioavailability in CD1 mouse at 10 mg/kg by UPLC analysis; assay type: ADME, organism-based; details: in vivo
786-0 = assay: Antitumor activity against human 786-O cells xenografted in SCID/Biege mouse assessed as tumor regression at 10 mg/kg, po bid for 21 days; assay type: functional, organism-based
Cytochrome P450 2D6 = Cytochrome P450 2D6 (Homo sapiens, UniProt P10635); assay: Inhibition of CYP2D6 in human liver microsomes using dextromethorphan as substrate after 10 mins in presence of NADPH by LC-MS/MS analysis; assay type: ADME
Sequence of Cytochrome P450 2D6 (P10635 whole entry): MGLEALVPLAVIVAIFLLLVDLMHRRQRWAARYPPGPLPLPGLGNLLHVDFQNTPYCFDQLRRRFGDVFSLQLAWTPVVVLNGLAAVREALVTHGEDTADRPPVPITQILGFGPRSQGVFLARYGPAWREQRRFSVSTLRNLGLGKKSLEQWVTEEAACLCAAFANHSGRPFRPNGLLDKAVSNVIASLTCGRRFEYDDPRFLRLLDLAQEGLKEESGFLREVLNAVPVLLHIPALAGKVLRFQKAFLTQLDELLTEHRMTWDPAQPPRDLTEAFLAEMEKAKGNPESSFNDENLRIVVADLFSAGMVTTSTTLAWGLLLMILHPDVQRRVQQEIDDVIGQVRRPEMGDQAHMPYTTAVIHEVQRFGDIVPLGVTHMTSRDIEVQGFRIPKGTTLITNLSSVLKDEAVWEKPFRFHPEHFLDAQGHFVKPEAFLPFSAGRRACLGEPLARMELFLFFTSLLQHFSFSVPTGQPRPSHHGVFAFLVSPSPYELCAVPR

[10] = Clearance in CD1 mouse at 3 mg/kg, iv by UPLC analysis; assay type: ADME, organism-based; details: in vivo
[11] = Oral bioavailability in Sprague-Dawley rat at 10 mg/kg administered via gavage by UPLC analysis; assay type: ADME, organism-based; details: in vivo
Cytochrome P450 3A4 = Cytochrome P450 3A4 (Homo sapiens, UniProt P08684); assay: Inhibition of CYP3A4 in human liver microsomes using midazolam as substrate after 10 mins in presence of NADPH by LC-MS/MS analysis; assay type: ADME
Sequence of Cytochrome P450 3A4 (P08684 whole entry): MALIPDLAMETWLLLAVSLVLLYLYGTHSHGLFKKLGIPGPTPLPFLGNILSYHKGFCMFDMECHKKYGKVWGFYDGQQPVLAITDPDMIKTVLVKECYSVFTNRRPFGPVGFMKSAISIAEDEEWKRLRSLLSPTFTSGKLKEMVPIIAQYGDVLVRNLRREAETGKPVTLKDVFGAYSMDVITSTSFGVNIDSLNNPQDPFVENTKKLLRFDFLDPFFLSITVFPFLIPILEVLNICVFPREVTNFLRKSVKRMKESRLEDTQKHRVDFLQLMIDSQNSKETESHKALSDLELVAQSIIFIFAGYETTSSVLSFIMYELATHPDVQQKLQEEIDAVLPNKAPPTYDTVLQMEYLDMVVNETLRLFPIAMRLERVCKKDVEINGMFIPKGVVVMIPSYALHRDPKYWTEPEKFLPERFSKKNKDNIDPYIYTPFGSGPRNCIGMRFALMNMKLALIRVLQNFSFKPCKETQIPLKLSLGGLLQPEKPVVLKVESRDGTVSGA

Cytochrome P450 2C8 = target: T1, Cytochrome P450 2C8 (Homo sapiens, UniProt P10632); assay: Inhibition of CYP2C8 in human liver microsomes using amodiaquine as substrate after 10 mins in presence of NADPH by LC-MS/MS analysis; assay type: ADME
T1 sequence (P10632 whole entry): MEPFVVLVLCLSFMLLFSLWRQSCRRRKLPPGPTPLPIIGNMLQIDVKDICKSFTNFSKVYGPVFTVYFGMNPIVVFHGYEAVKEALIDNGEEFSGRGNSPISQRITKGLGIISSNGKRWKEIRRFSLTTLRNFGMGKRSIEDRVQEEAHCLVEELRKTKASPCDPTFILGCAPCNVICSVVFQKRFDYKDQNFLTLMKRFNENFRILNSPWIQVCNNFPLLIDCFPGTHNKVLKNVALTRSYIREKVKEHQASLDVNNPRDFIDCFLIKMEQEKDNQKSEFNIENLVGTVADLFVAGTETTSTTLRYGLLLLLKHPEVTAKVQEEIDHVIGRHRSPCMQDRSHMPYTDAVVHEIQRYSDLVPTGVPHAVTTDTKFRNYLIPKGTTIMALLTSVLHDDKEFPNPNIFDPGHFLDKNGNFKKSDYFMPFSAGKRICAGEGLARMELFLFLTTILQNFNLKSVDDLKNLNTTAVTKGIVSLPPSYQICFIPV

[12] = Half life in Beagle dog at 10 mg/kg, po via gavage by UPLC analysis; assay type: ADME, organism-based, Canis lupus familiaris; details: in vivo
Mus musculus [13] = assay: Toxicity in SCID/Biege mouse xenografted with human 786-O cells assessed as mortality at 10 mg/kg, po bid for 21 days; assay type: organism-based; details: in vivo, 504 h
[14] = Intrinsic clearance in human liver microsomes at 1 uM measured up to 30 mins by LC-MS/MS analysis; assay type: ADME, microsome; details: read-out: CLH
Cytochrome P450 2B6 = target: T2, Cytochrome P450 2B6 (Homo sapiens, UniProt P20813); assay: Inhibition of CYP2B6 in human liver microsomes using bupropion as substrate after 10 mins in presence of NADPH by LC-MS/MS analysis; assay type: ADME
T2 sequence (P20813 whole entry): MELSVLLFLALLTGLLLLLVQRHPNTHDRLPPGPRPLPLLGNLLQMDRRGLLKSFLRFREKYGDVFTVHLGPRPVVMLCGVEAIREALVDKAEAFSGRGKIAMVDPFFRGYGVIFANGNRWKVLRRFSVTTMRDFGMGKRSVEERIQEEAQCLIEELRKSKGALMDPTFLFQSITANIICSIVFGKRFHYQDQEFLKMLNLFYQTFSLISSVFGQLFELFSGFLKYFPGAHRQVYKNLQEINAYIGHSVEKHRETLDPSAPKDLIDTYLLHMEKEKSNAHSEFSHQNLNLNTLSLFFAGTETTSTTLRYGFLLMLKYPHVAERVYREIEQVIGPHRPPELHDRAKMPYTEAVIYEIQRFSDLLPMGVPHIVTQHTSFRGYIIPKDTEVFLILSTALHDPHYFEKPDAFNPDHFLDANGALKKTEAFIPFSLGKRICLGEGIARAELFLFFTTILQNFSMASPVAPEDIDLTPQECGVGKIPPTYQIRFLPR

Mus musculus [15] = assay: In vivo inhibition of HIF-2alpha in SCID/Biege mouse xenografted with human 786-O cells assessed as reduction in VEGFA mRNA levels at 10 mg/kg, po bid for 3 days and measured after 12 hrs post last dose by qRT-PCR analysis; assay type: functional, organism-based
Mus musculus [16] = assay: Toxicity in SCID/Biege mouse xenografted with human 786-O cells assessed as effect on body weight at 10 mg/kg, po bid for 21 days; assay type: organism-based; details: in vivo, 504 h
Canis familiaris [17] = assay: Oral bioavailability in Beagle dog at 10 mg/kg administered via gavage by UPLC analysis; assay type: ADME, organism-based, Canis lupus familiaris; details: in vivo
[18] = Thermodynamic solubility of the compound in phosphate buffer at pH 7.4 after 24 hrs by HPLC-UV analysis; assay type: physicochemical; details: read-out: Therm_solubility
[19] = Volume of distribution at steady state in CD1 mouse at 3 mg/kg, iv by UPLC analysis; assay type: ADME, organism-based; details: in vivo, read-out: Vdss
[20] = Half life in Sprague-Dawley rat at 10 mg/kg, po via gavage by UPLC analysis; assay type: ADME, organism-based; details: in vivo
[21] = Intrinsic clearance in mouse liver microsomes at 1 uM measured up to 30 mins by LC-MS/MS analysis; assay type: ADME, microsome; details: read-out: CLH
[22] = Volume of distribution at steady state in Beagle dog at 3 mg/kg, iv by UPLC analysis; assay type: ADME, organism-based, Canis lupus familiaris; details: in vivo, read-out: Vdss
hERG (KCNH2) = hERG (KCNH2) (Homo sapiens, UniProt Q12809); assay: Inhibition of human ERG expressed in mammalian cells at 10 uM after 3 mins by QPatch clamp assay; assay type: cell-based; details: mammalian cells that express human ERG
Sequence of hERG (KCNH2) (Q12809 whole entry): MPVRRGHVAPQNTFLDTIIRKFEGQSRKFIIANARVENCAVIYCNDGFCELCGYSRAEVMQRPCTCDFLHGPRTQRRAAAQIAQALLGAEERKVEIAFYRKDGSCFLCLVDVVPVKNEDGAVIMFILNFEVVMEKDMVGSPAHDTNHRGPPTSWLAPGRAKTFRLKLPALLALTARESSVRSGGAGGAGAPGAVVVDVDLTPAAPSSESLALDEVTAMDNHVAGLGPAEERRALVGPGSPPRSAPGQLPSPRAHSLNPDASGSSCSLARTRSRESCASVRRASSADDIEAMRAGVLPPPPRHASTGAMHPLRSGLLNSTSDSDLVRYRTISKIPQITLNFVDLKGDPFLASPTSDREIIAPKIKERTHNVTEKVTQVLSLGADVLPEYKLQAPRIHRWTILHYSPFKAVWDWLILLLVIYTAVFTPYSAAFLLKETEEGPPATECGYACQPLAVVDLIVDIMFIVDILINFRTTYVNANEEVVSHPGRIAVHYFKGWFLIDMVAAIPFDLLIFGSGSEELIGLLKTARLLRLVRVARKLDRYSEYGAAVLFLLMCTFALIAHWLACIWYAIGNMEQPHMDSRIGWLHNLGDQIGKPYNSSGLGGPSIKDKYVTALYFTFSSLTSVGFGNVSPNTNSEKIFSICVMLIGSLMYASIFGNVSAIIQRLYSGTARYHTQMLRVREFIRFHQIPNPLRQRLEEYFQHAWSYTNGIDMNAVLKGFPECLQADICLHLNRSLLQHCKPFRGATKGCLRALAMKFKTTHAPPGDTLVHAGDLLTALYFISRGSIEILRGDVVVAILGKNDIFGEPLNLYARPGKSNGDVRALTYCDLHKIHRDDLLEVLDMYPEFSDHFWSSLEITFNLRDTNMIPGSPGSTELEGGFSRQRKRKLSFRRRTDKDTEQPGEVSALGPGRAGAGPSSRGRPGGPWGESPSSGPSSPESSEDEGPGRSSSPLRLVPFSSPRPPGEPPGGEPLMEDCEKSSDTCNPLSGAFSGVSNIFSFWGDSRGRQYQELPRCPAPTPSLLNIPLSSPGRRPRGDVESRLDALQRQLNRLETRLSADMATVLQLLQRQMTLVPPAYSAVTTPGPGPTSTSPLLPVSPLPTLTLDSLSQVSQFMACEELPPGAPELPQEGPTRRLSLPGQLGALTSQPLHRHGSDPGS

SMILES	fraction unbound at 4 h, 10 µM [1]	AUCt (Canis familiaris [2]) [µM·h]	IC50 (Cytochrome P450 2C9) [µM]	CLint scaled at 1 µM [3] [mL/min/kg]	AUC(0-t) [4] [µM·h]	fraction unbound at 4 h, 10 µM [5]	fraction unbound at 4 h, 10 µM [6]	Papp A→B at 1 h, 1 µM [7] [×10⁻⁶ cm/s]	Activity (Mus musculus [8])	bioavailability [9] [%]	Activity (786-0)	IC50 (Cytochrome P450 2D6) [µM]	clearance [10] [mL/min/kg]	bioavailability [11] [%]	IC50 (Cytochrome P450 3A4) [µM]	IC50 (Cytochrome P450 2C8) [µM]	half-life [12] [h]	Activity (Mus musculus [13])	CLint scaled at 1 µM [14] [mL/min/kg]	IC50 (Cytochrome P450 2B6) [µM]	also measured
N#Cc1cc(F)cc(Oc2ccc3c(c2C(F)F)[C@@H](O)C(F)(F)S3(=O)=O)c1	0.11	12.6	15.7	9.1	6.1	0.15	0.38	2.6	Non-Toxic	110	Active	> 50	70.6	36	13.3	> 50	6.7	Non-Toxic	< 3	> 50	inhibition (Mus musculus [15]): Active; Activity (Mus musculus [16]): Non-Toxic; F (Canis familiaris [17]): 72%; solubility thermodynamic at 24 h [18]: 126 µM (≈ 51.1 µg/mL); Vd [19]: 9.5 L/kg; half-life [20]: 3.7 h; CLint scaled at 1 µM [21]: 5.9 mL/min/kg; Vd [22]: 3.1 L/kg; inhibition at 0.05 h, 10 µM (hERG (KCNH2)): 17%
CS(=O)(=O)c1ccc(Oc2cc(F)cc(C#N)c2)c2c1[C@H](O)C(F)(F)C2	0.26	6.2	23	22.6	16.4	0.29	0.26	2.98	Non-Toxic	110	Active	> 50	29.2	40	> 50	> 50	11	Non-Toxic	4.7	> 50	inhibition (Mus musculus [15]): Active; Activity (Mus musculus [16]): Non-Toxic; F (Canis familiaris [17]): 87%; solubility thermodynamic at 24 h [18]: 59 µM (≈ 22.6 µg/mL); Vd [19]: 7 L/kg; half-life [20]: 3.3 h; CLint scaled at 1 µM [21]: 19.9 mL/min/kg; Vd [22]: 8.6 L/kg; inhibition at 0.05 h, 10 µM (hERG (KCNH2)): 8.2%
